From ChEMBL document CHEMBL1201862, “PubChem BioAssay data set” (2004)
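Growth conditions: 96-well plates. Treatment: test compound, 48 hours, 5 concentrations. Analysis: linear interpolation between bracketing concentrations; unreached endpoints set to highest concentration. At the GI50, growth is halved.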 The source made the active and inactive calls. Cut-off read from the data, not from the text of the source: active = GI50 up to about 1.1 µM and inactive = higher.

Experiments:
Test in all cases: growth of human tumour cells (NCI), 48 h
T47D = test system: T47D
HCT-116 = test system: HCT-116
ACHN = test system: ACHN
HOP-92 = test system: HOP-92
NCI-H522 = test system: NCI-H522
MDA-MB-231 = test system: MDA-MB-231
MDA-N = test system: MDA-N
BT-549 = test system: BT-549
HCC 2998 = test system: HCC 2998
786-0 = test system: 786-0
MOLT-4 = test system: MOLT-4
K562 = test system: K562
OVCAR-3 = test system: OVCAR-3
UO-31 = test system: UO-31
HL-60 = test system: HL-60

| SMILES | GI50 (T47D) | GI50 (HCT-116) | GI50 (ACHN) | GI50 (HOP-92) | GI50 (NCI-H522) | GI50 (MDA-MB-231) | GI50 (MDA-N) | GI50 (BT-549) | GI50 (HCC 2998) | GI50 (786-0) | GI50 (MOLT-4) | GI50 (K562) | GI50 (OVCAR-3) | GI50 (UO-31) | GI50 (HL-60) |
| --- | --- | --- | --- | --- | --- | --- | --- | --- | --- | --- | --- | --- | --- | --- | --- |
| O=C(/C=C/c1ccc(-c2ccccc2)cc1)NCc1ccc(C(=O)NCCc2c[nH]c3ccccc23)cc1 | 22 µM (inactive) | 46.9 µM (inactive) | 35.8 µM (inactive) | 20.1 µM (inactive) | 21.3 µM (inactive) | 14.6 µM (inactive) | 49.2 µM (inactive) | 37.2 µM (inactive) | 83.4 µM (inactive) | 11.1 µM (inactive) | 16.6 µM (inactive) | 21.5 µM (inactive) | 28.9 µM (inactive) | 26.7 µM (inactive) | – |
| O=C(CSCC(=O)N/N=C/c1ccncc1)N/N=C/c1ccncc1 | > 100 µM (inactive) | > 100 µM (inactive) | > 100 µM (inactive) | > 100 µM (inactive) | > 100 µM (inactive) | > 100 µM (inactive) | – | > 100 µM (inactive) | > 100 µM (inactive) | > 100 µM (inactive) | > 100 µM (inactive) | > 100 µM (inactive) | > 100 µM (inactive) | > 100 µM (inactive) | > 100 µM (inactive) |
| COc1cc(OCCN(C)C)c2[nH]c(C(=O)N3CC(CCl)c4ccc(N)cc43)cc2c1 (stereo not given) | 0.0312 µM (active) | 0.0238 µM (active) | 0.0178 µM (active) | 0.0596 µM (active) | 0.0139 µM (active) | 0.0912 µM (active) | 0.0643 µM (active) | 0.351 µM (active) | 0.0265 µM (active) | 0.0202 µM (active) | < 0.01 µM (active) | 0.0239 µM (active) | 0.0282 µM (active) | 0.0195 µM (active) | – |
| COc1ccc(/C=C2\Sc3nnc(CNc4ccc(Cl)cc4)n3N=C2c2cc(F)c(Cl)cc2Cl)cc1OC | 44.3 µM (inactive) | 14.8 µM (inactive) | 48.4 µM (inactive) | 17 µM (inactive) | 27.7 µM (inactive) | > 100 µM (inactive) | 24 µM (inactive) | – | 31 µM (inactive) | 24.5 µM (inactive) | 10.9 µM (inactive) | 19 µM (inactive) | 48.1 µM (inactive) | 56.9 µM (inactive) | 45.7 µM (inactive) |
| CC(=O)OC1CC[C@@]2(C)C(=CC[C@@H]3[C@@H]2CC[C@]2(C)C(OC(C)=O)[C@H](n4ccnc4)C[C@@H]32)C1 (stereo not given in full) | – | 14.9 µM (inactive) | 40.3 µM (inactive) | 97.5 µM (inactive) | 14.4 µM (inactive) | 37.2 µM (inactive) | 21 µM (inactive) | – | – | 30.4 µM (inactive) | 12.9 µM (inactive) | 24.6 µM (inactive) | – | 36.6 µM (inactive) | 8.91 µM (inactive) |
| CCN(CC)CCOC(NC(C)=O)(c1ccccc1)c1ccccc1 | > 100 µM (inactive) | > 100 µM (inactive) | > 100 µM (inactive) | > 100 µM (inactive) | – | > 100 µM (inactive) | – | – | > 100 µM (inactive) | > 100 µM (inactive) | > 100 µM (inactive) | – | – | > 100 µM (inactive) | > 100 µM (inactive) |
| Cc1ccc(C(=O)N/N=C(\N=N\c2ccccc2)c2ccc(N(CCC#N)CCC#N)cc2C)cc1 | > 100 µM (inactive) | – | > 100 µM (inactive) | > 100 µM (inactive) | 19.4 µM (inactive) | > 100 µM (inactive) | – | – | > 100 µM (inactive) | – | > 100 µM (inactive) | > 100 µM (inactive) | 39.2 µM (inactive) | > 100 µM (inactive) | > 100 µM (inactive) |
| CC1(C)C=Cc2c(cc3oc4ccc5c(c4c(=O)c3c2O)C=CC(C)(C)O5)O1 | > 100 µM (inactive) | > 100 µM (inactive) | > 100 µM (inactive) | > 100 µM (inactive) | > 100 µM (inactive) | > 100 µM (inactive) | > 100 µM (inactive) | > 100 µM (inactive) | > 100 µM (inactive) | > 100 µM (inactive) | > 100 µM (inactive) | – | > 100 µM (inactive) | > 100 µM (inactive) | – |
| COC1C(=O)CCC2(CO2)C1(O)C1(C)OC1CC=C(C)C (stereo not given) | > 100 µM (inactive) | 11.3 µM (inactive) | 17.6 µM (inactive) | 25.8 µM (inactive) | – | > 100 µM (inactive) | 41 µM (inactive) | 50.6 µM (inactive) | 17.7 µM (inactive) | 32.4 µM (inactive) | 25.1 µM (inactive) | 16.9 µM (inactive) | 25.2 µM (inactive) | 28.4 µM (inactive) | – |
| COc1ccc(/C=C2/CSCC3=C2N=C(S)NC3c2ccc(OC)c(OC)c2OC)c(OC)c1OC (stereo not given) | 43.4 µM (inactive) | 8.09 µM (inactive) | 19 µM (inactive) | < 0.01 µM (active) | 22.1 µM (inactive) | 17.7 µM (inactive) | – | – | 31.3 µM (inactive) | 13.8 µM (inactive) | 3.05 µM (inactive) | 7.6 µM (inactive) | 43.7 µM (inactive) | – | 6.34 µM (inactive) |
| CO/C(=C/C(=O)C(Cl)(Cl)Cl)CC/C(=C\C(=O)C(Cl)(Cl)Cl)OC | 25.4 µM (inactive) | 18.8 µM (inactive) | 24.5 µM (inactive) | 18.4 µM (inactive) | 20.1 µM (inactive) | 42.2 µM (inactive) | 22.8 µM (inactive) | 27.9 µM (inactive) | – | 22.3 µM (inactive) | 21.4 µM (inactive) | 25.8 µM (inactive) | 26.8 µM (inactive) | 20.5 µM (inactive) | 26.4 µM (inactive) |
